Format in all cases: functional
The target in test [1] is Neuropeptides B/W receptor type 1 (Homo sapiens, UniProt P48145). Description: GPR7 antagonist potency, late-stage follow-up, cell-based, fluorescence, dose response, set 5 (AID 588566).
The target in test [2] is Melanin-concentrating hormone receptor 1 (Homo sapiens, UniProt Q99705). Description: Late-stage fluorescence-based counterscreen for antagonists of the G-protein coupled receptor 7 (GPR7): cell-based dose response assay to identify antagonists of the melanin-concentrating hormone receptor 1 (MCHR1) Set 5.
The nature of test [3]: Vero cell cytotoxicity, dose response, cytotoxicity control for M. tuberculosis growth inhibitor project, Vero cells, purified and synthesized compounds, set 5 (AID 504909). As to conditions: Mycobacterium tuberculosis.
Test [4] can be described thus: THP-1 cell cytotoxicity, cytotoxicity control, set 4 (AID 504911). The settings on record: Mycobacterium tuberculosis.

SMILES strings stand for the structures. The source made the active and inactive calls.

Melanin-concentrating hormone receptor 1, sequence (Q99705 whole entry): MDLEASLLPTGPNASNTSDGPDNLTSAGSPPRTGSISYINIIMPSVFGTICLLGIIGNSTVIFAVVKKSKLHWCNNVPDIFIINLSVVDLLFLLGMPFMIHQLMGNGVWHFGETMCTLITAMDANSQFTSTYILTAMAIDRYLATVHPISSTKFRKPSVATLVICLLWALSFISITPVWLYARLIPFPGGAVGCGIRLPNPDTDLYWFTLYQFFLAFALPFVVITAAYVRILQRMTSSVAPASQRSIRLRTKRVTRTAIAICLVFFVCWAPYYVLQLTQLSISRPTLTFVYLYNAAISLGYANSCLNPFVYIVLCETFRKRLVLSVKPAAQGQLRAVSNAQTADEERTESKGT
Neuropeptides B/W receptor type 1, sequence (P48145 whole entry): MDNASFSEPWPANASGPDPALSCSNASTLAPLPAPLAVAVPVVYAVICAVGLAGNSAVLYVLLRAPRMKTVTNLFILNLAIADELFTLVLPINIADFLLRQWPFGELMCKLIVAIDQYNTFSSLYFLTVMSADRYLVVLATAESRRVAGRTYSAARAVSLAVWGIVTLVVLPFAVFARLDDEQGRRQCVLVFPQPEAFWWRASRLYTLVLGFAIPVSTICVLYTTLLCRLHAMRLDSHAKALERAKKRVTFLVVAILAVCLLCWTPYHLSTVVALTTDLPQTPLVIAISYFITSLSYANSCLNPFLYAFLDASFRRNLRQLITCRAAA

The IC50 is the point on the concentration scale where inhibition reaches its midpoint. With `COc1ccc(Oc2c(Cl)cnn(CC(=O)C(C)(C)C)c2=O)cc1`, the IC50 in test [1] and in test [2] was > 20 µM (inactive) throughout.

In general, CC50 refers to the concentration that lowers cell viability or growth by half. As to `CO[C@H]1/C=C/O[C@@]2(C)Oc3c(C)c(O)c4c(O)c(c(C=NN5CCN(C)CC5)c(O)c4c3C2=O)NC(=O)/C(C)=C\C=C\[C@H](C)[C@H](O)[C@@H](C)[C@@H](O)[C@@H](C)[C@H](OC(C)=O)[C@@H]1C` [RIFAMPIN], the values for the cytotoxic concentration (CC50) in test [3] and in test [4] were > 100 µM (active) and 79.7 µM (active), respectively.

The values above are taken from ChEMBL document CHEMBL1201862, “PubChem BioAssay data set” (2004).
